Like-named read-outs stand apart in the source and are kept apart here.
Key:
[1] = test system: glioblastoma (SF-295); assay: NCI 60 five dose screen; conditions: SF-295 (CNS Cancer), five dose
[2] = test system: SF-295; assay: NCI 60 one dose screen; assay type: cell-based, human; conditions: one dose; CNS Cancer; SF-295
[3] = test system: SF-539; assay: NCI 60 one dose screen; assay type: cell-based, human; conditions: one dose; CNS Cancer; SF-539
[4] = test system: 60 different human tumor cell lines; conditions: five dose; for CC50: read-out: LC50
[5] = test system: NCI-H522 (NSCLC); assay: NCI 60 one dose screen; assay type: cell-based, human; conditions: Non-small Cell Lung Cancer
[6] = A549/ATCC (Non-small Cell Lung Cancer)
[7] = EKVX (Non-small Cell Lung Cancer)
[8] = HOP-62 (Non-small Cell Lung Cancer)
[9] = HOP-92 (Non-small Cell Lung Cancer)
[10] = MDA-MB-231/ATCC (Breast Cancer)
[11] = NCI-H23 (Non-small Cell Lung Cancer)
[12] = NCI-H226 (Non-small Cell Lung Cancer)
[13] = NCI-H322M (Non-small Cell Lung Cancer)
[14] = NCI-H460 (Non-small Cell Lung Cancer)
[15] = NCI-H522 (Non-small Cell Lung Cancer)

C[C@]12CCc3nc(N)sc3C1=CC[C@@H]1[C@@H]2CC[C@]2(C)C(=NNC(N)=O)CC[C@@H]12 [IVb.1]
GI50 [1]: 1610 nM | TGI [1]: 3.03E−6 | CC50 ([1]; read-out: LC50): 5710 nM | Growth Percent [2]: 45.72% | Growth Percent [3]: 87.19% | GI50 ([4]; 786-0 (Renal Cancer)): 1390 nM | TGI ([4]; 786-0 (Renal Cancer)): 2.82E−6 | GI50 ([4]; A498 (Renal Cancer)): 2100 nM | TGI ([4]; A498 (Renal Cancer)): 6.83E−6 | GI50 [4, 6]: 2020 nM | TGI [4, 6]: 3.89E−6 | GI50 ([4]; ACHN (Renal Cancer)): 1800 nM | TGI ([4]; ACHN (Renal Cancer)): 3.19E−6 | GI50 ([4]; BT-549 (Breast Cancer)): 2840 nM | TGI ([4]; BT-549 (Breast Cancer)): 8.91E−6 | GI50 ([4]; CAKI-1 (Renal Cancer)): 1770 nM | TGI ([4]; CAKI-1 (Renal Cancer)): 3.64E−6 | GI50 ([4]; CCRF-CEM (Leukemia)): 280 nM | TGI ([4]; CCRF-CEM (Leukemia)): 1.62E−6 | GI50 ([4]; COLO 205 (Colon Cancer)): 2060 nM | TGI ([4]; COLO 205 (Colon Cancer)): 4.37E−6 | GI50 ([4]; DU-145 (Prostate Cancer)): 1750 nM | TGI ([4]; DU-145 (Prostate Cancer)): 3.41E−6 | GI50 [4, 7]: 1800 nM | TGI [4, 7]: 3.63E−6 | GI50 ([4]; HCC-2998 (Colon Cancer)): 1740 nM | TGI ([4]; HCC-2998 (Colon Cancer)): 3.28E−6 | GI50 ([4]; HCT-15 (Colon Cancer)): 1460 nM | TGI ([4]; HCT-15 (Colon Cancer)): 2.86E−6 | GI50 ([4]; HCT-116 (Colon Cancer)): 2090 nM | TGI ([4]; HCT-116 (Colon Cancer)): 4.35E−6 | GI50 ([4]; HL-60(TB) (Leukemia)): 2730 nM | TGI ([4]; HL-60(TB) (Leukemia)): 7.95E−6 | GI50 [4, 8]: 1840 nM | TGI [4, 8]: 3.47E−6 | GI50 [4, 9]: 1510 nM | TGI [4, 9]: 3.16E−6 | GI50 ([4]; HS 578T (Breast Cancer)): 2080 nM | TGI ([4]; HS 578T (Breast Cancer)): 5.15E−6 | GI50 ([4]; HT29 (Colon Cancer)): 1880 nM | TGI ([4]; HT29 (Colon Cancer)): 3.73E−6 | GI50 ([4]; IGROV1 (Ovarian Cancer)): 1780 nM | TGI ([4]; IGROV1 (Ovarian Cancer)): 3.43E−6 | GI50 ([4]; K-562 (Leukemia)): 1810 nM | TGI ([4]; K-562 (Leukemia)): 5.08E−6 | GI50 ([4]; KM12 (Colon Cancer)): 2010 nM | TGI ([4]; KM12 (Colon Cancer)): 4.01E−6 | GI50 ([4]; LOX IMVI (Melanoma)): 1710 nM | TGI ([4]; LOX IMVI (Melanoma)): 3.12E−6 | GI50 ([4]; M14 (Melanoma)): 1940 nM | TGI ([4]; M14 (Melanoma)): 3.77E−6 | GI50 ([4]; MALME-3M (Melanoma)): 1760 nM | TGI ([4]; MALME-3M (Melanoma)): 3.49E−6 | GI50 ([4]; MCF7 (Breast Cancer)): 1520 nM | TGI ([4]; MCF7 (Breast Cancer)): 3.14E−6 | GI50 [4, 10]: 1700 nM | TGI [4, 10]: 3.43E−6 | GI50 ([4]; MDA-MB-435 (Melanoma)): 1330 nM | TGI ([4]; MDA-MB-435 (Melanoma)): 2.70E−6 | GI50 ([4]; MDA-MB-468 (Breast Cancer)): 1600 nM | TGI ([4]; MDA-MB-468 (Breast Cancer)): 3.17E−6 | GI50 ([4]; MOLT-4 (Leukemia)): 2640 nM | TGI ([4]; MOLT-4 (Leukemia)): 7.02E−6 | GI50 [4, 11]: 1780 nM | TGI [4, 11]: 3.32E−6 | GI50 [4, 12]: 2090 nM | TGI [4, 12]: 4.91E6 | GI50 [4, 13]: 1770 nM | TGI [4, 13]: 3.55E−6 | GI50 [4, 14]: 1920 nM | TGI [4, 14]: 3.61E−6 | GI50 [4, 15]: 1930 nM | TGI [4, 15]: 4.06E−6 | GI50 ([4]; NCI/ADR-RES (Ovarian Cancer)): 1940 nM | TGI ([4]; NCI/ADR-RES (Ovarian Cancer)): 3.87E−6 | GI50 ([4]; OVCAR-3 (Ovarian Cancer)): 1870 nM | TGI ([4]; OVCAR-3 (Ovarian Cancer)): 3.44E−6 | GI50 ([4]; OVCAR-4 (Ovarian Cancer)): 1740 nM | TGI ([4]; OVCAR-4 (Ovarian Cancer)): 3.17E−6 | GI50 ([4]; OVCAR-5 (Ovarian Cancer)): 1710 nM | GI50 ([4]; OVCAR-8 (Ovarian Cancer)): 1850 nM | TGI ([4]; OVCAR-8 (Ovarian Cancer)): 3.63E−6 | GI50 ([4]; PC-3 (Prostate Cancer)): 1250 nM | TGI ([4]; PC-3 (Prostate Cancer)): 2.75E−6 | GI50 ([4]; RXF 393 (Renal Cancer)): 1610 nM | TGI ([4]; RXF 393 (Renal Cancer)): 3.23E−6 | GI50 ([4]; SF-268 (CNS Cancer)): 1780 nM | TGI ([4]; SF-268 (CNS Cancer)): 4.11E−6 | GI50 ([4]; SK-MEL-2 (Melanoma)): 1980 nM | TGI ([4]; SK-MEL-2 (Melanoma)): 4.58E−6 | GI50 ([4]; SK-MEL-5 (Melanoma)): 1570 nM | TGI ([4]; SK-MEL-5 (Melanoma)): 2.97E−6 | GI50 ([4]; SK-MEL-28 (Melanoma)): 1630 nM | TGI ([4]; SK-MEL-28 (Melanoma)): 3.10E−6 | GI50 ([4]; SK-OV-3 (Ovarian Cancer)): 6210 nM | TGI ([4]; SK-OV-3 (Ovarian Cancer)): 2.23E−6 | GI50 ([4]; SN12C (Renal Cancer)): 1890 nM | TGI ([4]; SN12C (Renal Cancer)): 3.45E−6 | GI50 ([4]; SNB-19 (CNS Cancer)): 1870 nM | TGI ([4]; SNB-19 (CNS Cancer)): 3.62E−6 | GI50 ([4]; SNB-75 (CNS Cancer)): 1580 nM | TGI ([4]; SNB-75 (CNS Cancer)): 3.50E−6 | GI50 ([4]; SW-620 (Colon Cancer)): 1690 nM | TGI ([4]; SW-620 (Colon Cancer)): 3.39E−6 | GI50 ([4]; T-47D (Breast Cancer)): 1860 nM | TGI ([4]; T-47D (Breast Cancer)): 3.80E−6 | GI50 ([4]; TK-10 (Renal Cancer)): 2290 nM | TGI ([4]; TK-10 (Renal Cancer)): 5.45E−6 | GI50 ([4]; U251 (CNS Cancer)): 1770 nM | TGI ([4]; U251 (CNS Cancer)): 3.22E−6 | GI50 ([4]; UACC-62 (Melanoma)): 1630 nM | TGI ([4]; UACC-62 (Melanoma)): 3.13E−6 | GI50 ([4]; UACC-257 (Melanoma)): 2400 nM | TGI ([4]; UACC-257 (Melanoma)): 5.83E−6 | GI50 ([4]; UO-31 (Renal Cancer)): 1520 nM | TGI ([4]; UO-31 (Renal Cancer)): 2.88E−6 | CC50 ([4]; 786-0 (Renal Cancer)): 5960 nM | CC50 ([4]; A498 (Renal Cancer)): 27800 nM | CC50 [4, 6]: 7510 nM | CC50 ([4]; ACHN (Renal Cancer)): 5680 nM | CC50 ([4]; BT-549 (Breast Cancer)): 88500 nM | CC50 ([4]; CAKI-1 (Renal Cancer)): 7490 nM | CC50 ([4]; CCRF-CEM (Leukemia)): > 100000 nM | CC50 ([4]; COLO 205 (Colon Cancer)): 9250 nM | CC50 ([4]; DU-145 (Prostate Cancer)): 6660 nM | CC50 [4, 7]: 7320 nM | CC50 ([4]; HCC-2998 (Colon Cancer)): 6150 nM | CC50 ([4]; HCT-15 (Colon Cancer)): 5600 nM | CC50 ([4]; HCT-116 (Colon Cancer)): 9070 nM | CC50 ([4]; HL-60(TB) (Leukemia)): > 100000 nM | CC50 [4, 8]: 6540 nM | CC50 [4, 9]: 6600 nM | CC50 ([4]; HT29 (Colon Cancer)): 7410 nM | CC50 ([4]; IGROV1 (Ovarian Cancer)): 6630 nM | CC50 ([4]; K-562 (Leukemia)): 40400 nM | CC50 ([4]; KM12 (Colon Cancer)): 6790 nM | CC50 ([4]; LOX IMVI (Melanoma)): 5720 nM | CC50 ([4]; M14 (Melanoma)): 7310 nM | CC50 ([4]; MALME-3M (Melanoma)): 6900 nM | CC50 ([4]; MCF7 (Breast Cancer)): 6500 nM | CC50 [4, 10]: 6900 nM | CC50 ([4]; MDA-MB-435 (Melanoma)): 5490 nM | CC50 ([4]; MDA-MB-468 (Breast Cancer)): 6300 nM | CC50 ([4]; MOLT-4 (Leukemia)): 93300 nM | CC50 [4, 11]: 6210 nM | CC50 [4, 12]: 17400 nM | CC50 [4, 14]: 6790 nM | CC50 [4, 15]: 8550 nM | CC50 ([4]; NCI/ADR-RES (Ovarian Cancer)): 7710 nM | CC50 ([4]; OVCAR-3 (Ovarian Cancer)): 6340 nM | CC50 ([4]; OVCAR-4 (Ovarian Cancer)): 5780 nM | CC50 ([4]; OVCAR-5 (Ovarian Cancer)): 5960 nM | CC50 ([4]; OVCAR-8 (Ovarian Cancer)): 7110 nM | CC50 ([4]; PC-3 (Prostate Cancer)): 6010 nM | CC50 ([4]; RXF 393 (Renal Cancer)): 6480 nM | CC50 ([4]; SF-268 (CNS Cancer)): 9480 nM | CC50 ([4]; SK-MEL-2 (Melanoma)): 12400 nM | CC50 ([4]; SK-MEL-5 (Melanoma)): 5610 nM | CC50 ([4]; SK-MEL-28 (Melanoma)): 5880 nM | CC50 ([4]; SK-OV-3 (Ovarian Cancer)): 66700 nM | CC50 ([4]; SN12C (Renal Cancer)): 6330 nM | CC50 ([4]; SNB-19 (CNS Cancer)): 7010 nM | CC50 ([4]; SNB-75 (CNS Cancer)): 7760 nM | CC50 ([4]; SW-620 (Colon Cancer)): 8550 nM | CC50 ([4]; T-47D (Breast Cancer)): 7770 nM | CC50 ([4]; TK-10 (Renal Cancer)): 19300 nM | CC50 ([4]; U251 (CNS Cancer)): 5860 nM | CC50 ([4]; UACC-62 (Melanoma)): 5980 nM | CC50 ([4]; UACC-257 (Melanoma)): 25700 nM | CC50 ([4]; UO-31 (Renal Cancer)): 5440 nM | Growth Percent [5]: −18.57%
